This passage reports IC50 results from patent US6943183B2 (Pfizer Inc, priority 2000, dated 2005).

The experiment deals with T1, SF9 affinity purified rat FPT (Rattus norvegicus, UniProt Q02293+Q04631).
T1 construct: made in house; host or cells: Sf9 insect cells
The experiment is described as follows: PFT (FPT) inhibitory activity assay, radiolabeled farnesyl pyrophosphate and biotinyl peptide, streptavidin beads. The note with it: HEPES buffer pH 7.4, 30° C., 30 minutes; read-out: FTase IC50. The format is biochemical. In outline:
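Rat FPT expressed in SF9 cells was incubated 30 minutes at 30° C. with compound (in 10% DMSO), radiolabeled farnesyl pyrophosphate and biotinylated peptide. Buffer: HEPES pH 7.4, ZnCl2 20 μM, MgCl2 and DTT 5 mM each, 0.1% PEG 8000, 5 mM potassium phosphate (also run without phosphate). Product captured on streptavidin beads in magnesium acetate/H3PO4 stop buffer.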

In the case of `CC(=O)N(Cc1c(O[C@H](Cn2ccnc2)c2ccccc2)ccc2c1CCCC2=O)c1ccc(C)cc1` [Compound 144, N-[2-((S)-2-Imidazol-1-yl-1-phenyl-ethoxy)-5-oxo-5,6,7,8-tetrahydro-naphthalen-1-ylmethyl]-N-β-tolyl-acetamide], the IC50 amounted to 35 nM.

For `O=C1CCCc2c1ccc(O[C@H](Cn1ccnc1)c1ccccc1)c2CNc1ccc2[nH]ncc2c1` [Compound 145], the 50% inhibitory concentration (IC50) worked out at 16 nM.

Turning to `O=C1CCCc2c1ccc(O[C@H](Cn1ccnc1)c1ccccc1)c2CN1CCN(c2ccccc2)CC1` [Compound 146, 6-((S)-2-Imidazol-1-yl-1-phenyl-ethoxy)-5-(4-phenyl-piperazin-1-ylmethyl)-3,4-dihydro-2H-napthalen-1-one], the IC50 worked out at 34 nM.

As for `O=C1CCCc2c1ccc(O[C@H](Cn1ccnc1)c1ccccc1)c2CN1CCN(c2ccccn2)CC1` [Compound 147, 6-((S)-2-Imidazol-1-yl-1-phenyl-ethoxy)-5-(4-pyridin-2-yl-piperazin-1-ylmethyl)-3,4-dihydro-2H-napthalen-1-one], the half-inhibitory concentration (IC50) is 19 nM.

Consider `O=C1CCCc2c1ccc(O[C@H](Cn1ccnc1)c1ccccc1)c2CNc1cccc2cccnc12` [Compound 148, 6-((S)-2-Imidazol-1-yl-1-phenyl-ethoxy)-5-(quinolin-8-ylaminomethyl)-3,4-dihydro-2H-napthalen-1-one], for which the IC50 is 5.3 nM.

Regarding `N#Cc1ccccc1NCc1c(O[C@H](Cn2ccnc2)c2ccccc2)ccc2c1CCCC2=O` [Compound 149, 2-{[2-((S)-2-Imidazol-1-yl-1-phenyl-ethoxy)-5-oxo-5,6,7,8-tetrahydro-napthalen-1-ylmethyl]-amino}-benzonitrile], the IC50 amounted to 3 nM.

With `O=C1CCCc2c1ccc(O[C@H](Cn1ccnc1)c1ccccc1)c2CNc1ccc(Br)cc1` [Compound 150, 5-[(4-Bromo-phenylamino)-methyl]-6-((S)-2-imidazol-1-yl-1-phenyl-ethoxy)-3,4-dihydro-2H-napthalen-1-one], the IC50 came out at 16 nM.

Consider `O=C1CCCc2c1ccc(O[C@H](Cn1ccnc1)c1ccccc1)c2CNc1ccc(F)cc1` [Compound 151, 5-[(4-Fluoro-phenylamino)-methyl]-6-((S)-2-imidazol-1-yl-1-phenyl-ethoxy)-3,4-dihydro-2H-napthalen-1-one], for which the IC50 was determined as 19 nM.

With `O=C1CCCc2c1ccc(O[C@H](Cn1ccnc1)c1ccccc1)c2CNc1ccc2c(c1)OCCO2` [Compound 152, 5-[(2,3-Dihydro-benzo[1,4]dioxin-6-ylamino)-methyl]-6-((S)-2-imidazol-1-yl-1-phenyl-ethoxy)-3,4-dihydro-2H-napthalen-1-one], the IC50 amounted to 5 nM.

Turning to `O=C1CCCc2c1ccc(O[C@H](Cn1ccnc1)c1ccccc1)c2CSCc1ccc(Cl)c(Cl)c1` [Compound 153, 5-(3,4-Dichloro-benzylsulfanylmethyl)-6-((1S)-2-imidazol-1-yl-1-phenyl-ethoxy)-3,4-dihydro-2H-naphthalen-1-one], the IC50 stood at 15 nM.

On to `COC(=O)c1ccccc1S(=O)(=O)Cc1c(O[C@H](Cn2ccnc2)c2ccccc2)ccc2c1CCCC2=O` [Compound 154, Methyl 2-{[(2-{[(1S)-2-(1H-Imidazol-1-yl)-1-phenylethyl]oxy}-5-oxo-5,6,7,8-tetrahydro-1-naphthalenyl)methyl]sulfonyl}benzoate], for which the IC50 turned out to be 2.6 nM.

Turning to `COC(=O)c1ccc(S(=O)(=O)Cc2c(O[C@H](Cn3ccnc3)c3ccccc3)ccc3c2CCCC3=O)cc1` [Compound 155, Methyl 4-{[(2-{[(1S)-2-(1H-Imidazol-1-yl)-1-phenylethyl]oxy}-5-oxo-5,6,7,8-tetrahydro-1-naphthalenyl)methyl]sulfonyl}benzoate], the half-inhibitory concentration (IC50) came to 20 nM.

Turning to `COC(=O)c1cccc(S(=O)(=O)Cc2c(O[C@H](Cn3ccnc3)c3ccccc3)ccc3c2CCCC3=O)c1` [Compound 156], the IC50 was 5 nM.

In the case of `COC(=O)c1ccc(SCc2c(O[C@H](Cn3ccnc3)c3ccccc3)ccc3c2CCCC3=O)cc1` [Compound 157, Methyl 4-{[(2-{[(1S)-2-(1H-Imidazol-1-yl)-1-phenylethyl]oxy}-5-oxo-5,6,7,8-tetrahydro-1-naphthalenyl)methyl]sulfanyl}benzoate], the half-maximal inhibitory concentration (IC50) came to 4 nM.

Regarding `COC(=O)c1cccc(SCc2c(O[C@H](Cn3ccnc3)c3ccccc3)ccc3c2CCCC3=O)c1` [Compound 158, Methyl 3-{[(2-{[(1S)-2-(1H-Imidazol-1-yl)-1-phenylethyl]oxy}-5-oxo-5,6,7,8-tetrahydro-1-naphthalenyl)methyl]sulfanyl}benzoate], the 50% inhibitory concentration (IC50) was determined as 4 nM.

For `O=C(O)c1ccccc1S(=O)(=O)Cc1c(O[C@H](Cn2ccnc2)c2ccccc2)ccc2c1CCCC2=O` [Compound 159, 2-{[(2-{[(1S)-2-(1H-Imidazol-1-yl)-1-phenylethyl]oxy}-5-oxo-5,6,7,8-tetrahydro-1-naphthalenyl)methyl]sulfonyl}benzoic Acid], the IC50 stood at 5.5 nM.

Regarding `O=C(O)c1ccc(S(=O)(=O)Cc2c(O[C@H](Cn3ccnc3)c3ccccc3)ccc3c2CCCC3=O)cc1` [Compound 160, 4-{[(2-{[(1S)-2-(1H-Imidazol-1-yl)-1-phenylethyl]oxy}-5-oxo-5,6,7,8-tetrahydro-1-naphthalenyl)methyl]sulfonyl}benzoic Acid], the IC50 was 10 nM.

With `O=C(O)c1cccc(S(=O)(=O)Cc2c(O[C@H](Cn3ccnc3)c3ccccc3)ccc3c2CCCC3=O)c1` [Compound 161, 3-{[(2-{[(1S)-2-(1H-Imidazol-1-yl)-1-phenylethyl]oxy}-5-oxo-5,6,7,8-tetrahydro-1-naphthalenyl)methyl]sulfonyl}benzoic Acid], the concentration for half-maximal inhibition (IC50) turned out to be 5 nM.

Consider `O=C(O)c1ccc(SCc2c(O[C@H](Cn3ccnc3)c3ccccc3)ccc3c2CCCC3=O)cc1` [Compound 162, 4-{[(2-{[(1S)-2-(1H-Imidazol-1-yl)-1-phenylethyl]oxy}-5-oxo-5,6,7,8-tetrahydro-1-naphthalenyl)methyl]sulfanyl}benzoic Acid], for which the IC50 was 8 nM.

For the compound `O=C(O)c1cccc(SCc2c(O[C@H](Cn3ccnc3)c3ccccc3)ccc3c2CCCC3=O)c1` [Compound 163, 3-{[(2-{[(1S)-2-(1H-Imidazol-1-yl)-1-phenylethyl]oxy}-5-oxo-5,6,7,8-tetrahydro-1-naphthalenyl)methyl]sulfanyl}benzoic Acid], the IC50 was 5 nM.

As to `CNC(=O)c1ccccc1S(=O)(=O)Cc1c(O[C@H](Cn2ccnc2)c2ccccc2)ccc2c1CCCC2=O` [Compound 164, 2-{[(2-{[(1S)-2-(1H-Imidazol-1-yl)-1-phenylethyl]oxy}-5-oxo-5,6,7,8-tetrahydro-1-naphthalenyl)methyl]sulfonyl)-N-methylbenzamide], the IC50 turned out to be 5.3 nM.

On to `O=C(NCCO)c1ccccc1S(=O)(=O)Cc1c(O[C@H](Cn2ccnc2)c2ccccc2)ccc2c1CCCC2=O` [Compound 165, N-(2-Hydroxyethyl)-2-{[(2-{[(1S)-2-(1H-imidazol-1-yl)-1-phenylethyl]oxy}-5-oxo-5,6,7,8-tetrahydro-1-naphthalenyl)methyl]sulfonyl}benzamide], for which the IC50 is 6.4 nM.

For the compound `O=C(O)CCNC(=O)c1ccc(S(=O)(=O)Cc2c(O[C@H](Cn3ccnc3)c3ccccc3)ccc3c2CCCC3=O)cc1` [Compound 166, N-4-{[(2-{[(1S)-2-(1H-Imidazol-1-yl)-1-phenylethyl]oxy}-5-oxo-5,6,7,8-tetrahydro-1-naphthalenyl)methyl]sulfonyl}benzoyl-β-alanine], the IC50 is 30 nM.

Consider `O=C(O)CCNC(=O)c1ccccc1S(=O)(=O)Cc1c(O[C@H](Cn2ccnc2)c2ccccc2)ccc2c1CCCC2=O` [Compound 167, N-2-{[(2-{[(1S)-2-(1H-Imidazol-1-yl)-1-phenylethyl]oxy}-5-oxo-5,6,7,8-tetrahydro-1-naphthalenyl)methyl]sulfonyl}benzoyl-β-alanine], for which the IC50 amounted to 7 nM.

`O=C(O)CCNC(=O)c1cccc(S(=O)(=O)Cc2c(O[C@H](Cn3ccnc3)c3ccccc3)ccc3c2CCCC3=O)c1` [Compound 168, N-3-{[(2-{[(1S)-2-(1H-Imidazol-1-yl)-1-phenylethyl]oxy}-5-oxo-5,6,7,8-tetrahydro-1-naphthalenyl)methyl]sulfonyl}benzoyl-β-alanine]: the half-inhibitory concentration (IC50) amounted to 10 nM.

On to `O=C(O)CCNC(=O)c1ccccc1SCc1c(O[C@H](Cn2ccnc2)c2ccccc2)ccc2c1CCCC2=O` [Compound 169, N-2-{[(2-{[(1S)-2-(1H-Imidazol-1-yl)-1-phenylethyl]oxy}-5-oxo-5,6,7,8-tetrahydro-1-naphthalenyl)methyl]sulfanyl}benzoyl-β-alanine], for which the IC50 came out at 7 nM.

As for `O=C(O)CCNC(=O)c1ccc(SCc2c(O[C@H](Cn3ccnc3)c3ccccc3)ccc3c2CCCC3=O)cc1` [Compound 170, N-4-{[(2-{[(1S)-2-(1H-Imidazol-1-yl)-1-phenylethyl]oxy}-5-oxo-5,6,7,8-tetrahydro-1-naphthalenyl)methyl]sulfanyl}benzoyl-β-alanine], the IC50 was determined as 7 nM.

With `O=C(O)CCNC(=O)c1cccc(SCc2c(O[C@H](Cn3ccnc3)c3ccccc3)ccc3c2CCCC3=O)c1` [Compound 171, N-3-{[(2-{[(1S)-2-(1H-Imidazol-1-yl)-1-phenylethyl]oxy}-5-oxo-5,6,7,8-tetrahydro-1-naphthalenyl)methyl]sulfanyl}benzoyl-β-alanine], the IC50 was determined as 6 nM.

For `O=C(NCCO)c1cccc(SCc2c(O[C@H](Cn3ccnc3)c3ccccc3)ccc3c2CCCC3=O)c1` [Compound 172, N-(2-Hydroxyethyl)-3-{[(2-{[(1S)-2-(1H-imidazol-1-yl)-1-phenylethyl]oxy}-5-oxo-5,6,7,8-tetrahydro-1-naphthalenyl)methyl]sulfanyl}benzamide], the IC50 was determined as 5 nM.

For the compound `O=C(NCCO)c1ccccc1SCc1c(O[C@H](Cn2ccnc2)c2ccccc2)ccc2c1CCCC2=O` [Compound 173, N-(2-Hydroxyethyl)-2-{[(2-{[(1S)-2-(1H-imidazol-1-yl)-1-phenylethyl]oxy}-5-oxo-5,6,7,8-tetrahydro-1-naphthalenyl)methyl]sulfanyl}benzamide], the IC50 turned out to be 4 nM.
